Measured values from US9079866B2, “Flap modulators” (JANSSEN PHARMACEUTICA NV, priority 2013, dated 2015).

Assays:
human FLAP = human FLAP (Homo sapiens (Human), UniProt P20292); test: FLAP binding assay (HTRF format); conditions: human FLAP wild type, HTRF format; average of two plates, duplicates
Outline: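 Samples were run in duplicate on each of two assay plates, the results were averaged, and the signal was expressed as an HTRF ratio.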

[1] = test system: leukotriene pathway in human whole blood (LTB4 levels); test: Human whole blood assay (A23187-stimulated LTB4); type: cell-based; conditions: Homo sapiens, human whole blood diluted 1:1 in RPMI, A23187-stimulated LTB4; read-out: LTB4 IC50 1:1
Outline: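 Single-replicate data from at least one healthy donor: compound pre-incubated 15 min at 37° Celsius in 1:1 RPMI-diluted heparinised blood, followed by 30 min calcium ionophore A23187 (7 μg/mL) challenge at 37° Celsius. LTB4 in plasma quantified by kit; IC50 via 4-parameter equation.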

Sequence of human FLAP (P20292 whole entry): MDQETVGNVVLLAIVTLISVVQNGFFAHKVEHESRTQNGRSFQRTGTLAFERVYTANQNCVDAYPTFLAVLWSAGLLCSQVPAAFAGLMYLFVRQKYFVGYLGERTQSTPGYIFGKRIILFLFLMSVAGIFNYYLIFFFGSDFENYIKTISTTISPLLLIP

Row | Ki (human FLAP) [µM] | IC50 [1] [µM] | Compound
1 | 0.004 | 0.042 | Nc1cnc(-c2ccc(-c3ccccc3S(=O)(=O)N3CCC(F)(F)C3)cc2F)cn1 [Example 51, 5-{2′-[(3,3-Difluoropyrrolidin-1-yl)sulfonyl]-3-fluorobiphenyl-4-yl}pyrazin-2-amine]
2 | 0.004 | 0.155 | Nc1cnc(-c2ccc(-c3ccccc3S(=O)(=O)N3CC(F)(F)C3)cc2F)cn1 [Example 52, 5-{2′-[(3,3-Difluoroazetidin-1-yl)sulfonyl]-3-fluorobiphenyl-4-yl}pyrazin-2-amine]
3 | 0.003 | 0.238 | Nc1cnc(-c2ccc(-c3ccccc3S(=O)(=O)N3CCCCCC3)cc2F)cn1 [Example 53, 5-[2′-(Azepan-1-ylsulfonyl)-3-fluorobiphenyl-4-yl]pyrazin-2-amine]
4 | 0.02 | 0.023 | CN1CCN(S(=O)(=O)c2ccccc2-c2ccc(-c3cnc(N)cn3)c(F)c2)CC1 [Example 54, 5-{3-Fluoro-2′-[(4-methylpiperazin-1-yl)sulfonyl]biphenyl-4-yl}pyrazin-2-amine]
5 | 0.001 | 1.23 | Nc1cnc(-c2ccc(-c3ccccc3S(=O)(=O)N3CCC(O)(C(F)(F)F)CC3)cc2F)cn1 [Example 55, 1-{[4′-(5-Aminopyrazin-2-yl)-3′-fluorobiphenyl-2-yl]sulfonyl}-4-(trifluoromethyl)piperidin-4-ol]
6 | 0.005 | 0.991 | Nc1cnc(-c2ccc(-c3ccccc3S(=O)(=O)N3CCN(C(=O)C4CC4)CC3)cc2F)cn1 [Example 58, 5-(2′-{[4-(Cyclopropylcarbonyl)piperazin-1-yl]sulfonyl}-3-fluorobiphenyl-4-yl)pyrazin-2-amine]
7 | 0.02 | 1.02 | Nc1cnc(-c2ccc(-c3ccccc3S(=O)(=O)N3CCN(CCO)CC3)cc2F)cn1 [Example 59, 2-(4-{[4′-(5-Aminopyrazin-2-yl)-3′-fluorobiphenyl-2-yl]sulfonyl}piperazin-1-yl)ethanol]
8 | 0.028 | 0.464 | Nc1cnc(-c2ccc(-c3ccccc3S(=O)(=O)N3CCN(C4CC4)CC3)cc2F)cn1 [Example 60, 5-{2′-[(4-Cyclopropylpiperazin-1-yl)sulfonyl]-3-fluorobiphenyl-4-yl}pyrazin-2-amine]
9 | 0.021 | 0.069 | Nc1cnc(-c2ccc(-c3ccccc3S(=O)(=O)N3CCNC(=O)C3)cc2F)cn1 [Example 66, 4-{[4′-(5-Aminopyrazin-2-yl)-3′-fluorobiphenyl-2-yl]sulfonyl}piperazin-2-one]
10 | 0.062 | 0.077 | CN(C)C1CCN(S(=O)(=O)c2ccccc2-c2ccc(-c3cnc(N)cn3)c(F)c2)CC1 [Example 73, 5-(2′-{[4-(Dimethylamino)piperidin-1-yl]sulfonyl}-3-fluorobiphenyl-4-yl)pyrazin-2-amine]
11 | 0.012 | 0.185 | CC(=O)NC1CCN(S(=O)(=O)c2ccccc2-c2ccc(-c3cnc(N)cn3)c(F)c2)CC1 [Example 75, N-(1-{[4′-(5-Aminopyrazin-2-yl)-3′-fluorobiphenyl-2-yl]sulfonyl}piperidin-4-yl)acetamide]
12 | 0.001 | 0.166 | Nc1cnc(-c2ccc(-c3ccccc3S(=O)(=O)N[C@@H](CO)[C@@H](O)c3ccccc3)cc2F)cn1 [Example 78, 4′-(5-Aminopyrazin-2-yl)-3′-fluoro-N-[(1S,2S)-2-hydroxy-1-(hydroxymethyl)-2-phenylethyl]biphenyl-2-sulfonamide]
13 | 0.006 | 0.152 | Nc1cnc(-c2ccc(-c3ccccc3S(=O)(=O)N[C@H](CO)c3ccccc3)cc2F)cn1 [Example 81, 4′-(5-Aminopyrazin-2-yl)-3′-fluoro-N-[(1S)-2-hydroxy-1-phenylethyl]biphenyl-2-sulfonamide]
14 | 0.001 | 0.018 | Nc1cnc(-c2ccc(-c3ccccc3S(=O)(=O)N[C@@H](CO)c3ccccc3)cc2F)cn1 [Example 82, 4′-(5-Aminopyrazin-2-yl)-3′-fluoro-N-[(1R)-2-hydroxy-1-phenylethyl]biphenyl-2-sulfonamide]
15 | 0.003 | 0.097 | CC[C@H](C)[C@@H](CO)NS(=O)(=O)c1ccccc1-c1ccc(-c2cnc(N)cn2)c(F)c1 [Example 84, 4′-(5-Aminopyrazin-2-yl)-3′-fluoro-N-[(1S,2S)-1-(hydroxymethyl)-2-methylbutyl]biphenyl-2-sulfonamide]

The next lines start with the molecule.

Row | Compound | Ki (human FLAP) [µM] | IC50 [1] [µM]
16 | Nc1cnc(-c2ccc(-c3ccccc3S(=O)(=O)N3CCC(F)(F)CC3)cc2F)cn1 [Example 49, 5-{2′-[(4,4-Difluoropiperidin-1-yl)sulfonyl]-3-fluorobiphenyl-4-yl}pyrazin-2-amine] | 0.002 | 0.021
17 | Nc1cnc(-c2ccc(-c3ccccc3S(=O)(=O)N3CCCC(F)(F)C3)cc2F)cn1 [Example 50, 5-{2′-[(3,3-Difluoropiperidin-1-yl)sulfonyl]-3-fluorobiphenyl-4-yl}pyrazin-2-amine] | 0.001 | 0.015
18 | CS(=O)(=O)N1CCN(S(=O)(=O)c2ccccc2-c2ccc(-c3cnc(N)cn3)c(F)c2)CC1 [Example 56, 5-(3-Fluoro-2′-{[4-(methylsulfonyl)piperazin-1-yl]sulfonyl}biphenyl-4-yl)pyrazin-2-amine] | 0.011 | 3.52
19 | CC(=O)N1CCN(S(=O)(=O)c2ccccc2-c2ccc(-c3cnc(N)cn3)c(F)c2)CC1 [Example 57, 5-{2′-[(4-Acetylpiperazin-1-yl)sulfonyl]-3-fluorobiphenyl-4-yl}pyrazin-2-amine] | 0.015 | 0.252
20 | N#CC1CCN(S(=O)(=O)c2ccccc2-c2ccc(-c3cnc(N)cn3)c(F)c2)CC1 [Example 64, 1-{[4′-(5-Aminopyrazin-2-yl)-3′-fluorobiphenyl-2-yl]sulfonyl}piperidine-4-carbonitrile] | 0.002 | 0.006
21 | Nc1cnc(-c2ccc(-c3ccccc3S(=O)(=O)N3CCC(N)CC3)cc2F)cn1 [Example 65, 5-{2′-[(4-Aminopiperidin-1-yl)sulfonyl]-3-fluorobiphenyl-4-yl}pyrazin-2-amine] | 0.049 | 0.322
22 | Nc1cnc(-c2ccc(-c3ccccc3S(=O)(=O)N3CCC(O)CC3)cc2F)cn1 [Example 67, 1-{[4′-(5-Aminopyrazin-2-yl)-3′-fluorobiphenyl-2-yl]sulfonyl}piperidin-4-ol] | 0.003 | 0.012
23 | Nc1cnc(-c2ccc(-c3ccccc3S(=O)(=O)N3CCC(CO)CC3)cc2F)cn1 [Example 68, (1-{[4′-(5-Aminopyrazin-2-yl)-3′-fluorobiphenyl-2-yl]sulfonyl}piperidin-4-yl)methanol] | 0.001 | 0.006
24 | Nc1cnc(-c2ccc(-c3ccccc3S(=O)(=O)N3CCC(CCO)CC3)cc2F)cn1 [Example 69, 2-(1-{[4′-(5-Aminopyrazin-2-yl)-3′-fluorobiphenyl-2-yl]sulfonyl}piperidin-4-yl)ethanol] | 0.001 | 0.008
25 | CNC1CCN(S(=O)(=O)c2ccccc2-c2ccc(-c3cnc(N)cn3)c(F)c2)CC1 [Example 72, 5-(3-Fluoro-2′-{[4-(methylamino)piperidin-1-yl]sulfonyl}biphenyl-4-yl)pyrazin-2-amine] | 0.111 | 0.168
26 | CC(C)C[C@@H](CO)NS(=O)(=O)c1ccccc1-c1ccc(-c2cnc(N)cn2)c(F)c1 [Example 79, 4′-(5-Aminopyrazin-2-yl)-3′-fluoro-N-[(1S)-1-(hydroxymethyl)-3-methylbutyl]biphenyl-2-sulfonamide] | 0.005 | 0.15
